From patent EP1430879A2, “Arylsulfatase inhibitors in deodorants and antiperspirants” (Henkel Kommanditgesellschaft auf Aktien, priority 2002, dated 2004) come the findings set out here.

The experiment addresses T1, Arylsulfatase (EC 3.1.6.1) aus Aerobacter aerogenes (Klebsiella aerogenes, UniProt P20713).
T1 construct: purchased Sigma S-1629
T1 sequence (P20713 21-464): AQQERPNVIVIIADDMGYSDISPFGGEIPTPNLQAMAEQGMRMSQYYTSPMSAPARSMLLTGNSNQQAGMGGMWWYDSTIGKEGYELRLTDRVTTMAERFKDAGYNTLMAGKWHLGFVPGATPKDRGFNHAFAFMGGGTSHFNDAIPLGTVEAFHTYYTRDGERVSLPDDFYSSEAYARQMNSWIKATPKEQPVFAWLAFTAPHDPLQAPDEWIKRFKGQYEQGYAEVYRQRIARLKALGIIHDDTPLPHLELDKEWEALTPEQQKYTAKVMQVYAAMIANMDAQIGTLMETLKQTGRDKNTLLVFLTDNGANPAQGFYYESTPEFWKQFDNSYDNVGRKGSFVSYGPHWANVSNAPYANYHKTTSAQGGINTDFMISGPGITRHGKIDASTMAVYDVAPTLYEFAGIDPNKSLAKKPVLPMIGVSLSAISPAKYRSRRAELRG
In words: Arylsulfatase enzyme inhibition test (Sigma sulfatase assay S-1629, p-nitrophenyl sulfate substrate, spectrophotometric at 420 nm). In kind it is biochemical. The conditions noted are these: raw material as supplied in aqueous solution; 187 mM Tris/HCl pH 7,1, 8 mM pNPS, 0,05 U/ml Arylsulfatase, 37°C. An excerpt: Da die hautrelevante Arylsulfatase nicht zur Verfügung stand, diente eine handelsübliche Arylsulfatase (EC 3.1.6.1) aus Aerobacter aerogenes als Modellenzym, um die Hemmwirkung der erfindungsgemäß verwendeten Inhibitoren zu testen. Die Tests wurden mit dem Sulfatase-Enzymassay Product No. S-1629 von Sigma gemäß den Angaben im Sigma Quality Control Test Procedure-Datenblatt durchgeführt. Als Referenz-Inhibitoren dienten Ascorbinsäure und ATP.
Zur Auswertung wurde die Arylsulfatase-katalysierte Bildung von p-Nitrophenol aus dem Substrat p-Nitrophenylsulfat (pNPS) spektrophotometrisch (λ = 420 nm) verfolgt. Die Reaktionslösungen von 1000 µl, die auf eine Reaktionstemperatur von 37°C temperiert wurden, enthielten 187 mM Tris/HCl (pH 7,1), 8 mM pNPS und eine Startkonzentration von 0,05 U/ml Arylsulfatase. Die Einheit U der Enzymaktivität wurde so definiert, dass 1 U Sulfatase 1,0 µmol pNPS pro Minute bei pH 7,1 und 37°C hydrolysiert. Die Testdurchführung ist auch offenbart bei H.R. Fowler und D. H. Rammler, Biochemistry 3, 230, 1964.
Die Reaktion wurde durch Zugabe des Enzyms gestartet und der Anstieg der Absorption bei λ = 420 nm über 5 Minuten verfolgt. Der lineare Anstieg der Absorption (A) pro Zeiteinheit (t) ist hierbei ein Maß für die Aktivität des Enzyms (ΔA/Δt). Die Aktivität des Enzyms in Abwesenheit eines Inhibitors, (ΔA1/Δt1 ), wurde als Referenz gleich 100% gesetzt. […]

Turning to `COc1cc2c(cc1O)CCC(C)(C)O2` [Lipochroman-6, 3,4-Dihydro-7-methoxy-2,2-dimethyl-2H-1-benzopyran-6-ol], the “Konzentration mit einer inhibierenden Wirkung von 50 %” value was 0,1 Gew.-% Rohstoff tel quel in wässriger Lösung.
